Laboratory results published in patent US12318503B2, “Functional amyloid hydrogels and applications thereof” (Indian Institute of Technology Bombay, priority 2019, dated 2025).
Where a SMILES comes first, the peptide text is derived from it. The star is where a group is joined. Fmoc = O=C(OCC1c2ccccc2-c2ccccc21)*

Columns and labels:
MCF7 spheroids [1] = assay: MTT cytotoxicity of chemotherapeutic drugs on spheroids versus 2D culture; format: cell-based; conditions: 0-14 μM, 24 h
Method: Cytotoxicity assays by MIT: MCF7 spheroids were cultured for five days in DMEM (Dulbecco's modified Eagle's medium) with 10% FBS, in a 5% CO2 incubator at 37° C. followed by treatment with different chemotherapeutics drugs (0-14 μM) for 24 h. For control, media containing buffer. After 24 h of incubation, 10 μl of MTT solution (5 mg/ml prepared in PBS) was added to each well and incubated for 4 h. Subsequently, 100 μl of SDS-DMF solution (50% DMF and 20% SDS, pH 4.75) were added and kept for overnight incubation. The absorption values at 560 nm and 690 nm (background absorbance) were determined using a SpectraMax M2e microplate reader (Molecular Devices, USA). The cell viability was plotted as percentage cell viability by considering 100% viability for the buffer control (FIG. 18 A).
Dense spheroids tended to show relative resistance to all these five chemotherapeutic drugs in the 3D-culture as compared to this resistance in 2D. […] These findings confirm that the formation of dense spheroids in 3D-culture plays a role in determining the sensitivity of the cell lines to these chemotherapeutic drugs. […] 3D, geometrical difference can have far-reaching impacts in terms of understanding physiological response.

MDA-MB-231 cells = assay: Efficacy of DOX released from hydrogels (MTT, Annexin-PI FACS); format: cell-based
Method: MDA-MB-231, breast cancer cell line was used for determining the efficacy of DOX release. To do so, MDA-MB-231 cells were grown on the DOX encapsulated hydrogels at a density of 2×10000 and cultured in complete DMEM media for 24 hrs. After 24 hrs, the cell morphology was imaged and the viability was then quantified using 3-(4,5-dimethylthiazol-2-yl)-2,5-diphenyl tetrazolium bromide (MTT) assay. FIG. 22A phase contrast images of MDA-MB-231 cells treated with DOX encapsulated hydrogels. […] For FACS analysis, MDAMB-231 cells were seeded on the hydrogel in the density 50,000 cells/well and allowed to grow for 24 hrs. Following the incubation, the cells were trypsinized and harvested in an eppendorf. The cell pellet was obtained by centrifugation and was resuspended in binding buffer. The percentage of apoptotic cells were measured by Annexin-PI staining method. 2 μl each of Annexin and PI was added to the resuspended cells and incubated for 5 mins before acquiring the results using FACS. […] To determine the efficacy of RA released from the hydrogel, SH-SY5Y neuroblastoma cells were seeded on hydrogel encapsulated with and without RA at a density of 1×10^4 and cultured in complete DMEM media. […] After 48 hrs, the morphology of these cells was analyzed by phase contrast images (FIG. 23A) and the cell shape was quantified by circularity using Image J software (FIG. 23C).

[2] = MTT cytotoxicity assay of cells cultured on the hydrogels; format: cell-based; conditions: human, hydrogel 5 mg/ml peptide, 24 hours culture, read-out: cell viability
Method: To determine whether the functional amyloid hydrogel is non-toxic in nature, MTT (3-[4,5-dimethylthiazol-2-yl]-2,5 diphenyl tetrazolium bromide) assay was performed. The amyloid hydrogels were casted at a concentration of 5 mg/ml for each peptide and neuroblastoma, SH-SY5Y cells at a density of 10^4 were seeded and cultured on the hydrogels for 24 hours. The MTT reagent (0.5 mg/ml final concentration) was added to the cells after 24 hrs of culture and the cells were further incubated for 4 h. Finally, 100 μl of 50% N, N-dimethylformamide/20% sodium dodecyl sulfate solution was added, and the mixture was incubated overnight. The absorption was then measured at 560 nm with an automatic microtiter plate reader (Thermo Fisher Scientific, Waltham, MA, USA). FIG. 9 depicts the percentage of cell viability.

SH-SY5Y cells = assay: Differentiation of cells on RA encapsulated hydrogels; format: cell-based; conditions: RA released from RA encapsulated hydrogels
Method: MDA-MB-231, breast cancer cell line was used for determining the efficacy of DOX release. To do so, MDA-MB-231 cells were grown on the DOX encapsulated hydrogels at a density of 2×10000 and cultured in complete DMEM media for 24 hrs. After 24 hrs, the cell morphology was imaged and the viability was then quantified using 3-(4,5-dimethylthiazol-2-yl)-2,5-diphenyl tetrazolium bromide (MTT) assay. FIG. 22A phase contrast images of MDA-MB-231 cells treated with DOX encapsulated hydrogels. […] For FACS analysis, MDAMB-231 cells were seeded on the hydrogel in the density 50,000 cells/well and allowed to grow for 24 hrs. Following the incubation, the cells were trypsinized and harvested in an eppendorf. The cell pellet was obtained by centrifugation and was resuspended in binding buffer. The percentage of apoptotic cells were measured by Annexin-PI staining method. 2 μl each of Annexin and PI was added to the resuspended cells and incubated for 5 mins before acquiring the results using FACS. […] After 48 hrs, the morphology of these cells was analyzed by phase contrast images (FIG. 23A) and the cell shape was quantified by circularity using Image J software (FIG. 23C).
The SH-SY5Y cells grown on hydrogel were immunostained with β-III tubulin (β-IIIT), a neuron specific marker to determine the efficacy of the released RA (FIG. 23B). […] The gene expression was analyzed by Real-time PCR technique.

MCF7 spheroids [3] = assay: Fluorescence live/dead study of drug effect on 2D versus 3D; format: cell-based; conditions: 24 h
Method: Fluorescence study was also performed to observe the effect of drug on 2D versus 3D. Here, after maturation of spheroids i.e., 5 days of culture on gel 4, different dose of paclitaxel (2-10 μM) was added for 24 h. To assess the effect of drug, cell viability was observed by staining through calcein AM and ethidium homodimer-1. Images were captured after incubation with dyes for 1 h. […] On the other hand, at the concentration of 4 μM, 70% of the cells for 2D are dead for the drug paclitaxel (FIG. 18 B).

[4] = tested on: STZ-induced diabetic rat model; assay: Insulin delivery from hydrogels in diabetic rats
Method: The functional amyloid hydrogel encapsulated with insulin (5 mg/ml) was administered subcutaneously to the diabetic rat model. Blood samples were collected from the tail veins of rats prior to drug administration and at different time intervals after dosing. Diabetes model rats were fasted for 12 h prior to and remained fasted during the experiment, but were allowed water ad libitum. The blood glucose level was checked biochemically at regular interval. The insulin released from the hydrogel in vivo was also monitored. To do that, blood samples were centrifuged (10,000 rpm, 4° C. for 15 min) and subsequently quantified using an appropriate insulin ELISA kit and during various time intervals.

O=c1[nH]cc(F)c(=O)[nH]1 [5FU]
death in 3D (MCF7 spheroids [1]): more death in 3D as compared to other drugs

COc1cccc2c1C(=O)c1c(O)c3c(c(O)c1C2=O)C[C@@](O)(C(=O)CO)C[C@@H]3O[C@H]1C[C@H](N)[C@H](O)[C@H](C)O1 [DOX, doxorubicin]
change in cell viability (FACS, Annexin-PI) (MDA-MB-231 cells; DOX encapsulated in the hydrogels, 24 hrs): decrease in cell viability
cancer cell death (MDA-MB-231 cells; DOX released from DOX encapsulated hydrogels): ~70%

CC[C@H](C)[C@H](NC(=O)[C@H](CCC(=O)O)NC(=O)[C@H](CCSC)NC(=O)[C@H](CC(C)C)NC(=O)[C@H](CCCCN)NC(=O)OCC1c2ccccc2-c2ccccc21)C(=O)O [FA1, KLMEI] (Fmoc-KLMEI-OH; N-terminus and C-terminus assumed)
viability at 24 h, 5000 µg/mL [2]: > 80%

CC[C@H](C)[C@H](NC(=O)[C@H](CC(=O)O)NC(=O)[C@H](CC(C)C)NC(=O)[C@H](CC(C)C)NC(=O)[C@H](CCCCN)NC(=O)OCC1c2ccccc2-c2ccccc21)C(=O)O [FA2, KLLDI] (Fmoc-KLLDI-OH; N-terminus and C-terminus assumed)
viability at 24 h, 5000 µg/mL [2]: > 80%

CC(C)C[C@H](NC(=O)[C@@H](NC(=O)[C@@H](NC(=O)[C@H](C)NC(=O)OCC1c2ccccc2-c2ccccc21)C(C)C)C(C)C)C(=O)N[C@@H](CO)C(=O)O [FA3, AVVLS] (Fmoc-AVVLS-OH; N-terminus and C-terminus assumed)
viability at 24 h, 5000 µg/mL [2]: > 80%

CC1=C(/C=C/C(C)=C/C=C/C(C)=C/C(=O)O)C(C)(C)CCC1 [RA, trans-retinoic acid]
differentiation of cells (SH-SY5Y cells): induced differentiation of SH-SY5Y cells towards neuronal lineage

CC(=O)O[C@H]1C(=O)[C@@]2(C)[C@H]([C@H](OC(=O)c3ccccc3)[C@]3(O)C[C@H](OC(=O)[C@H](O)[C@@H](NC(=O)c4ccccc4)c4ccccc4)C(C)=C1C3(C)C)[C@]1(OC(C)=O)CO[C@@H]1C[C@@H]2O [paclitaxel]
cells dead in 2D (MCF7 spheroids [3]; 4 μM, calcein AM / ethidium homodimer-1): 70%
resistance 3D versus 2D (MCF7 spheroids [3]; 2-10 μM, spheroids 5 days on gel 4): 3D are more resistant than 2D

insulin
blood sugar level ([4]; insulin encapsulated in the hydrogels, subcutaneously injected): 100 to 120 mg/dL
time blood glucose level maintained after administration ([4]; only insulin control): ≤ 6 h
time serum insulin level maintained after administration ([4]; only insulin control): ≤ 6 h
